Results as given in patent publication US11780849B2, “Imino sulfanone inhibitors of ENPP1” (Volastra Therapeutics, Inc., priority 2020, dated 2023).
Read-outs that look alike come from different tables or passages of the source.

Assays:
ENPP-1 ECD [1] = biological target: T1, ENPP-1 ECD (Homo sapiens (Human), UniProt P22413); test: Assay 1: inhibition of ENPP1 hydrolysis of 2′,3′-cGAMP (AMP-Glo, […] enzyme)
Description: Assay 1: Test compounds were plated in a 3× dilution scheme in a 384 well plate. […] AMP Detection solution (100 μL) was added to each well, the plate centrifuged and incubated for 60 min.

ENPP-1 ECD [2] = biological target: T1, ENPP-1 ECD; test: Assay 2: inhibition of ENPP1 hydrolysis of 2′,3′-cGAMP (AMP-Glo, […] enzyme)
Description: Assay 2: Compared to the conditions in Assay 1, this assay has a larger dynamic range and ensures the system is under steady-state conditions by reducing the enzyme concentration in the assay.
Test compounds were plated in a 3× dilution scheme in a 384 well plate. […] AMP Detection solution (10 μL) was added to each well, the plate centrifuged and incubated for 60 min.

[3] = biological target: ENPP1 on MDA-MB-231 cells (Homo sapiens (Human), UniProt P22413); test: Assay 3: inhibition of ENPP1 hydrolysis of AMP p-nitrophenyl ester on MDA-MB-231 cells
Description: Hydrolysis of the p-nitrophenyl ester of AMP (pNP-AMP), an isostere of ATP, is selectively catalyzed by ENPP1 in the supernatant of MDA-MB-231 cell cultures. Inhibition of the hydrolysis of pNP-AMP by MDA-MB-231 at pH 7.4 and 37° C., is a good model of physiologically relevant activity of membrane-bound ENPP1 at disease-relevant expression levels.
MDA-MB-231 cells were harvested using TypLE Express Enzyme digestion and suspended in 100 μL of Leibovitz's L-15 Medium, 20% FBS, seeding the cells in a 96-well assay plate with 4.5×10^4 cells/well. Cells were incubated at 37° C. with 1% CO2 for 24 h. In a separate dilution plate, 2× of top dose of compound was prepared in phenol-red free 1640 medium without FBS and then 1:3 serial diluted in the same medium. The cell culture medium of L15 medium was aspirated carefully and cells were washed with PBS once, and 50 μL per well of test compound or DMSO blank were added to the assay plate. Substrate mix (50 μL; 0.5 mM pNP-AMP in phenol-red free 1640 media without FBS) was added for a pNP-AMP final concentration of 0.25 mM. The system was incubated at 37° C. for 3 h.

[4] = Assay 1 (IC50), ENPP1 hydrolysis of 2′,3′-cGAMP, AMP-Glo
[5] = Assay 1 (IC50), inhibition of ENPP1 hydrolysis of 2′,3′-cGAMP, no unit in Table 18 (Table 17 legend for this assay uses nM)
[6] = IC50 in Assay 1, […] ENPP-1 ECD, 24 μM 2,3-cGAMP, pH 8.0
[7] = Assay 2 (KI), ENPP1 hydrolysis of 2′,3′-cGAMP, AMP-Glo, […] ENPP-1, 24 μM cGAMP
[8] = Assay 2 (KI), inhibition of ENPP1 hydrolysis of 2′,3′-cGAMP, no unit in Table 18 (Table 17 legend for this assay uses nM)
[9] = read-out: Assay 1 (IC50), ENPP1 hydrolysis of 2′,3′-cGAMP, AMP-Glo
[10] = read-out: Assay 1 (IC50), inhibition of ENPP1 hydrolysis of 2′,3′-cGAMP, no unit in Table 18 (Table 17 legend for this assay uses nM)
[11] = read-out: Assay 2 (KI), ENPP1 hydrolysis of 2′,3′-cGAMP, AMP-Glo, […] ENPP-1, 24 μM cGAMP
[12] = read-out: Assay 2 (KI), inhibition of ENPP1 hydrolysis of 2′,3′-cGAMP, no unit in Table 18 (Table 17 legend for this assay uses nM)
[13] = read-out: Assay 3 (KI, app), apparent KI from IC50 via Cheng/Prusoff, pNP-AMP […], MDA-MB-231 cells, pH 7.4, 37° C., 3 h, unit inferred

ENPP1 on MDA-MB-231 cells, sequence (P22413 whole entry): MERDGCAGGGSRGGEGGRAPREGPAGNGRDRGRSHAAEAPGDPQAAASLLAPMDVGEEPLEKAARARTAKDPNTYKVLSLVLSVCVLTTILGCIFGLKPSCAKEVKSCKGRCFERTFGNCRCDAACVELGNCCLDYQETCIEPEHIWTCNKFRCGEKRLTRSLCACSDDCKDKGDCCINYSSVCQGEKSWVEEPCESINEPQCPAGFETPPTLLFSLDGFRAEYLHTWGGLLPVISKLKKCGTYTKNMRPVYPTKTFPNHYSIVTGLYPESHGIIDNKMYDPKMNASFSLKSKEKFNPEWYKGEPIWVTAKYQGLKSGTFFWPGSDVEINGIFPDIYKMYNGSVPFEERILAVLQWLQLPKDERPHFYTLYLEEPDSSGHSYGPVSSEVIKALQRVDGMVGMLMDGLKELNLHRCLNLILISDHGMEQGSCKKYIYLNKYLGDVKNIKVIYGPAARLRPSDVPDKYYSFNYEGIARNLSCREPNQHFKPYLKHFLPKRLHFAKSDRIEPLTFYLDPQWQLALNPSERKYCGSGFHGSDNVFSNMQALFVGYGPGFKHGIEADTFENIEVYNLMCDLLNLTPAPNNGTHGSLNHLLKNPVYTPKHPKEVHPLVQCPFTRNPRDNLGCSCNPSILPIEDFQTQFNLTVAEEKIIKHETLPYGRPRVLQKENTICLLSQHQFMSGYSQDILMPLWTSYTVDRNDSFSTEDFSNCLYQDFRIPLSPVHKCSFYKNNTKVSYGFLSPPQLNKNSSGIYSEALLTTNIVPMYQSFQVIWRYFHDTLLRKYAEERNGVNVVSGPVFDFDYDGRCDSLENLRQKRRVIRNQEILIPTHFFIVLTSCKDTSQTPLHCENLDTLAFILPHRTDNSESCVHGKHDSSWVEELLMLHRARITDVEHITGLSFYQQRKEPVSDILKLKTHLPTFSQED
T1 sequence (P22413 98-925): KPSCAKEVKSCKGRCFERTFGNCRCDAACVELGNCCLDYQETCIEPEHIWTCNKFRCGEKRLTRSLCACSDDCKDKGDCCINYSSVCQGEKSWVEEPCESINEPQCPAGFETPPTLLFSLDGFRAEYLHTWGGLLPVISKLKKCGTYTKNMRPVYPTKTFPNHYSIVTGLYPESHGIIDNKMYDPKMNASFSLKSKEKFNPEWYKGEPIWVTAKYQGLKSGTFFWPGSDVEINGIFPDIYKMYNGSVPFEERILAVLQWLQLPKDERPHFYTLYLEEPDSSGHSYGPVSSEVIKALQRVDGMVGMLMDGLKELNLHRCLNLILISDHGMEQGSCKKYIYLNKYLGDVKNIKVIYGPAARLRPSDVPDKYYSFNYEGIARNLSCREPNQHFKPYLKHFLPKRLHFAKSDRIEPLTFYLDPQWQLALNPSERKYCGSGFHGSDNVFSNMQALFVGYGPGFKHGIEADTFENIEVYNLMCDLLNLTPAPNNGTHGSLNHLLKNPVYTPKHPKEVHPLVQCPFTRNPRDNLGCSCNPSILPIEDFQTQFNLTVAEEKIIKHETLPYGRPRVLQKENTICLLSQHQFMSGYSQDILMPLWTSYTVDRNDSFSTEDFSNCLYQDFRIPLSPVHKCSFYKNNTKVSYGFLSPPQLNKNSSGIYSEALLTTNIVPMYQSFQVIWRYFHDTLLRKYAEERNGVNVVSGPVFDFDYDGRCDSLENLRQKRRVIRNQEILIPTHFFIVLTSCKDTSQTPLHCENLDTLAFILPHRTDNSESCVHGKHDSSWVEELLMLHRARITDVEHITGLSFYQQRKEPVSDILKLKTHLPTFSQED

Row | IC50 (ENPP-1 ECD [1]; [5]) | Ki (ENPP-1 ECD [2]; [7]) | Ki (ENPP-1 ECD [2]; [8]) | Ki [3] | IC50 (ENPP-1 ECD [1]; [9]) | Compound | further results
1 | 17 nM | 3 to 300 nM | 3.5 nM | 61 nM |  | COc1cc2nccc(Oc3ccc(S(C)(=N)=O)cc3)c2cc1OC (stereo not drawn) [Compound 1, (4-((6,7-dimethoxyquinolin-4-yl)oxy)phenyl)(imino)(methyl)-λ^6-sulfanone] | Ki (ENPP-1 ECD [1]): 5.1 nM; IC50 (ENPP-1 ECD [1]; [4]): 10 to 1000 nM; IC50 (ENPP-1 ECD [1]; [6]): 17 nM
2 | 13 nM | < 3 nM | 0.87 nM | 45 nM |  | COc1cc2nccc(Oc3ccc([S@@](C)(=N)=O)cc3)c2cc1OC [Compound 1S, (S)-(4-((6,7-dimethoxyquinolin-4-yl)oxy)phenyl)(imino)(methyl)-λ^6-sulfanone] | IC50 (ENPP-1 ECD [1]; [4]): 10 to 1000 nM
3 | 30 nM | 3 to 300 nM | 8.6 nM | 190 nM |  | COc1ccc2c(Oc3ccc(S(C)(=N)=O)cc3F)ccnc2c1 (stereo not drawn) [Compound 12, (3-fluoro-4-((7-methoxyquinolin-4-yl)oxy)phenyl)(imino)(methyl)-λ^6-sulfanone] | IC50 (ENPP-1 ECD [1]; [4]): 10 to 1000 nM
4 | 2.9 nM | < 3 nM | 0.41 nM | 28 nM | < 10 nM | COc1cc2ncnc(-c3ccc4c(c3)CN(S(C)(=N)=O)CC4)c2cc1OC (stereo not drawn) [Compound 37, 6,7-dimethoxy-4-(2-(S-methylsulfonimidoyl)-1,2,3,4-tetrahydroisoquinolin-7-yl)quinazoline] | 
5 | 15 nM | < 3 nM | 1.6 nM | 110 nM |  | COc1cc2ncc(C#N)c(Oc3ccc(S(C)(=N)=O)cc3)c2cc1F (stereo not drawn) [Compound 44, 6-fluoro-7-methoxy-4-(4-(S-methylsulfonimidoyl)phenoxy)quinoline-3-carbonitrile] | IC50 (ENPP-1 ECD [1]; [4]): 10 to 1000 nM
6 |  |  |  |  | 10 to 1000 nM | COc1cc2ncc(C#N)c(Oc3ccc([S@@](C)(=N)=O)cc3)c2cc1F [Compound 44a] | IC50 (ENPP-1 ECD [1]; [10]): 11 nM; Ki (ENPP-1 ECD [2]; [11]): < 3 nM; Ki (ENPP-1 ECD [2]; [12]): 1 nM; Ki [3, 13]: 110 nM
7 | 35 nM | 3 to 300 nM | 6.3 nM | 280 nM |  | COc1ccc2c(-c3ccc4c(c3)CN(S(C)(=N)=O)CC4)ccnc2c1 (stereo not drawn) [Compound 52, 7-methoxy-4-(2-(S-methylsulfonimidoyl)-1,2,3,4-tetrahydroisoquinolin-7-yl)quinoline] | IC50 (ENPP-1 ECD [1]; [4]): 10 to 1000 nM
8 | 44 nM | 3 to 300 nM | 4.6 nM | 160 nM |  | COc1ccc2c(N3CCC4(CC3)CN(S(C)(=N)=O)C4)ccnc2c1 (stereo not drawn) [Compound 53, 7-methoxy-4-(2-(S-methylsulfonimidoyl)-2,7-diazaspiro[3.5]nonan-7-yl)quinoline] | IC50 (ENPP-1 ECD [1]; [4]): 10 to 1000 nM
9 | 2 nM | < 3 nM | 0.14 nM | 25 nM | < 10 nM | COc1ccc2c(N3CCC4(CC3)CCN(S(C)(=N)=O)C4)ccnc2c1 (stereo not drawn) [Compound 55, 8-(7-methoxyquinolin-4-yl)-2-(S-methylsulfonimidoyl)-2,8-diazaspiro[4.5]decane] | 
10 |  |  |  |  | < 10 nM | COc1ccc2c(N3CCC4(CC3)CCN([S@](C)(=N)=O)C4)ccnc2c1 [Compound 55a] | IC50 (ENPP-1 ECD [1]; [10]): 0.76 nM; Ki (ENPP-1 ECD [2]; [11]): < 3 nM; Ki (ENPP-1 ECD [2]; [12]): 0.09 nM; Ki [3, 13]: 8.7 nM
11 | 2.8 nM | < 3 nM | 0.34 nM | 23 nM | < 10 nM | COc1ccc2c(Oc3ccc(S(=N)(=O)C4CC4)cc3)ccnc2c1 (stereo not drawn) [Compound 60, cyclopropyl(imino)(4-((7-methoxyquinolin-4-yl)oxy)phenyl)-λ^6-sulfanone] | 
12 |  |  |  |  | < 10 nM | COc1ccc2c(Oc3ccc([S@@](=N)(=O)C4CC4)cc3)ccnc2c1 [Compound 60a] | IC50 (ENPP-1 ECD [1]; [10]): 1.3 nM; Ki (ENPP-1 ECD [2]; [11]): < 3 nM; Ki (ENPP-1 ECD [2]; [12]): 0.099 nM; Ki [3, 13]: 11 nM
13 |  |  | 1.2 nM | 56 nM |  | COc1ccc2c(COc3ccc(S(C)(=N)=O)cc3)ccnc2c1 (stereo not drawn) [Compound 231, imino({4-[(7-methoxyquinolin-4-yl)methoxy]phenyl})methyl-λ^6-sulfanone] | 
14 |  |  | 0.018 nM | 0.55 nM |  | COc1cc2nccc(OCc3cccc(S(=N)(=O)C4CC4)c3)c2cc1F (stereo not drawn) [Compound 244, [cyclopropyl(3-{[(6-fluoro-7-methoxyquinolin-4-yl)oxy]methyl}phenyl)imino-λ^6-sulfanyl]one] | 
15 |  |  | 0.23 nM | 5.7 nM |  | COc1ccc2c(O[C@@H](C)c3cccc(S(C)(=N)=O)c3)ccnc2c1 (stereo partly drawn) [Compound 245, imino({3-[(1S)-1-[(7-methoxyquinolin-4-yl)oxy]ethyl]phenyl})methyl-λ^6-sulfanone] | 

Continued, compound first:

Row | Compound | IC50 (ENPP-1 ECD [1]; [5]) | Ki (ENPP-1 ECD [2]; [7]) | Ki (ENPP-1 ECD [2]; [8]) | Ki [3] | IC50 (ENPP-1 ECD [1]; [9]) | further results
16 | COc1cc2ncnc(N3CCC(CCS(C)(=N)=O)CC3)c2cc1OC (stereo not drawn) [Compound 8, (2-(1-(6,7-dimethoxyquinazolin-4-yl)piperidin-4-yl)ethyl)(imino)(methyl)-λ^6-sulfanone] | 4.1 nM | < 3 nM | 0.69 nM | 27 nM | < 10 nM | IC50 (ENPP-1 ECD [1]; [6]): 6.9 nM
17 | COc1cc2ncc(C#N)c(N3CCC(CCS(C)(=N)=O)CC3)c2cc1F (stereo not drawn) [Compound 43, 6-fluoro-7-methoxy-4-(4-(2-(S-methylsulfonimidoyl)ethyl)piperidin-1-yl)quinoline-3-carbonitrile] | 3.9 nM | < 3 nM | 0.49 nM | 29 nM | < 10 nM | 
18 | COc1cc2ncnc(N3CCC4(CC3)CCN(S(C)(=N)=O)C4)c2cc1OC (stereo not drawn) [Compound 54, [8-(6,7-dimethoxyquinazolin-4-yl)-2,8-diazaspiro[4.5]decan-2-yl](imino)methyl-λ^6-sulfanone] | 0.71 nM | < 3 nM | 0.014 nM | 0.88 nM |  | 
19 | COc1cc2ncnc(N3CCC4(CC3)CCN([S@@](C)(=N)=O)C4)c2cc1OC [Compound 54a] |  |  |  |  | < 10 nM | IC50 (ENPP-1 ECD [1]; [10]): 0.34 nM; Ki (ENPP-1 ECD [2]; [11]): < 3 nM; Ki (ENPP-1 ECD [2]; [12]): 0.0075 nM; Ki [3, 13]: 0.32 nM
20 | COc1cc2ncnc(N3CCC4(CC3)CCN([S@](C)(=N)=O)C4)c2cc1OC [Compound 54b] |  |  |  |  | < 10 nM | IC50 (ENPP-1 ECD [1]; [10]): 7.6 nM; Ki (ENPP-1 ECD [2]; [11]): < 3 nM; Ki (ENPP-1 ECD [2]; [12]): 1.3 nM; Ki [3, 13]: 130 nM
21 | COc1cccc2c(N3CCC(CCS(C)(=N)=O)CC3)c(C#N)cnc12 (stereo not drawn) [Compound 57, 8-methoxy-4-(4-(2-(S-methylsulfonimidoyl)ethyl)piperidin-1-yl)quinoline-3-carbonitrile] | 31 nM | 3 to 300 nM | 5.3 nM | 120 nM |  | IC50 (ENPP-1 ECD [1]; [4]): 10 to 1000 nM
22 | COc1cccc2c(N3CCC(CCS(C)(=N)=O)CC3)ncnc12 (stereo not drawn) [Compound 72, imino({2-[1-(8-methoxyquinazolin-4-yl)piperidin-4-yl]ethyl})methyl-λ^6-sulfanone] | 120 nM | 3 to 300 nM | 18 nM | 430 nM |  | IC50 (ENPP-1 ECD [1]; [4]): 10 to 1000 nM
23 | COc1cc2nccc(OC[C@H]3CCN([S@@](C)(=N)=O)C3)c2cc1F [Compound 230b] |  |  |  |  |  | Ki (ENPP-1 ECD [2]; [12]): 0.38 nM; Ki [3, 13]: 6.6 nM
24 | COc1cccc2c(N3CCC4(CC3)CN(S(C)(=N)=O)C4)ncnc12 (stereo not drawn) [Compound 236, imino[7-(8-methoxyquinazolin-4-yl)-2,7-diazaspiro[3.5]nonan-2-yl]methyl-λ^6-sulfanone] |  |  | 86 nM | > 580 nM |  | 
25 | COc1cc2ncnc(N3CC4(CC(CS(C)(=N)=O)C4)C3)c2cc1OC (stereo not drawn) [Compound 237] |  |  | 0.028 nM | 1.2 nM |  | 
26 | COc1cc2ncnc(N3CC4(CC(C[S@](C)(=N)=O)C4)C3)c2cc1OC [Compound 237b] |  |  |  |  |  | Ki (ENPP-1 ECD [2]; [12]): 0.005 nM; Ki [3, 13]: 0.17 nM
27 | COc1cccc2c(N3CC[C@H](C[S@@](C)(=N)=O)C3)ncnc12 [Compound 238a] |  |  |  |  |  | Ki (ENPP-1 ECD [2]; [12]): 66 nM; Ki [3, 13]: 260 nM
28 | COc1cccc2c(N3CC[C@@H](CS(C)(=N)=O)C3)ncnc12 (stereo partly drawn) [Compound 239, imino({[(3R)-1-(8-methoxyquinazolin-4-yl)pyrrolidin-3-yl]methyl})methyl-λ^6-sulfanone] |  |  | 0.81 nM | 15 nM |  | 
29 | COc1cccc2c(N3CC[C@@H](C[S@](C)(=N)=O)C3)ncnc12 [Compound 239a] |  |  |  |  |  | Ki (ENPP-1 ECD [2]; [12]): 0.43 nM; Ki [3, 13]: 5.4 nM
30 | COc1cc2ncnc(N3CCC4(CC3)CCN(S(=N)(=O)CC(C)(C)O)C4)c2cc1OC (stereo not drawn) [Compound 240, [8-(6,7-dimethoxyquinazolin-4-yl)-2,8-diazaspiro[4.5]decan-2-yl](2-hydroxy-2-methylpropyl)imino-λ^6-sulfanone] |  |  | 0.069 nM | 5.4 nM |  | 
31 | COc1cc2ncnc(N3CCC4(CC3)CCN(S(C)(=N)=O)C4)c2cc1OCF (stereo not drawn) [Compound 241, {8-[6-(fluoromethoxy)-7-methoxyquinazolin-4-yl]-2,8-diazaspiro[4.5]decan-2-yl}(imino)methyl-λ^6-sulfanone] |  |  | 0.031 nM | 1.2 nM |  | 
32 | COc1cc2ncnc(-c3ccc4c(c3)CN(S(N)(=O)=O)CC4)c2cc1OC [reference compound] |  |  |  | 23 nM |  | IC50 (ENPP-1 ECD [1]; [6]): 11 nM
